From patent publication US7364719B2, “Vasoregulating compounds and methods of their use” (The United States of America as represented by the …, priority 2002, dated 2008)
One block for each compound: values may come before it. Bridges are numbered along the chain shown (N, C = ends). Where no end group is shown, it is not given here.

How the values were obtained:
hypertensive SHR rats = assay: Arterial blood pressure in hypertensive SHR rats after IP MMP-2 inhibitor; type: in vivo, rat; conditions: 5 mg IP
[1] = tested on: Male 10-week-old Lewis/ssncr rats; assay: Blood pressure measurements in rats after intravenous peptide injection; type: in vivo, rat
Protocol: Blood pressure measurements. Male 10-week-old Lewis/ssncr rats (SAIC, Frederic, Md.) were anesthetized with 3% halothane, intubated, and maintained with 1% halothane in 70% nitrous oxide and 30% oxygen (VMS Anesthesia Machine, Matrx, Medical Inc., Orchard Park, N.Y.) at 82 strokes/minute. Rectal temperature was monitored through the experiment. A PE50 catheter was placed on the right femoral artery and arterial blood pressure was recorded through a P23XL transducer (Grass Instruments, Quincy, Mass.). Peptides were injected into the right femoral vein through another catheter. To confirm that changes in blood pressure were not an artifact of the anesthesia, the experiments were repeated in conscious animals. After catheters were placed under anesthesia, the animals were allowed to recover for 24-48 hours before taking blood pressure measurements. All procedures were performed under a protocol approved by the National Institutes of Health.

[2] = target: T1, AM receptor in Rat2 cells (Rattus norvegicus, UniProt Q63118); assay: Measurement of cAMP response in Rat2 cells (radioimmunoassay); type: cell-based; conditions: for intracellular elevation of cAMP: peptides applied 5 minutes, versus PBS control
T1 construct: Rat2 is a fibroblast cell line that contains a well characterized AM receptor; host or cells: Rat2 rat fibroblast cell line
T1 sequence (Q63118 23-464 limits assumed): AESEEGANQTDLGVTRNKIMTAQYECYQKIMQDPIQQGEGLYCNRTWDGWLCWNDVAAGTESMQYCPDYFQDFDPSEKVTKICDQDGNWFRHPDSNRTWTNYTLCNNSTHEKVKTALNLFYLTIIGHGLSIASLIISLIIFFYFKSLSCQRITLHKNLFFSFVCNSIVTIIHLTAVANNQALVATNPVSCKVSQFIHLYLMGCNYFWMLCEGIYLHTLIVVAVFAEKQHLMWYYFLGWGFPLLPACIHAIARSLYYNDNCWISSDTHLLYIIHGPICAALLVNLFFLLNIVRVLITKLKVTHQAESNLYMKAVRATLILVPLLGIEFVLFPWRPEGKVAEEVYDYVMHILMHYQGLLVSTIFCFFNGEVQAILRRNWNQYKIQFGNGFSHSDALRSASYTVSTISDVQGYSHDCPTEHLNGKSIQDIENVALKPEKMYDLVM
T1 sequence (Q9JHJ1 46-182 partner): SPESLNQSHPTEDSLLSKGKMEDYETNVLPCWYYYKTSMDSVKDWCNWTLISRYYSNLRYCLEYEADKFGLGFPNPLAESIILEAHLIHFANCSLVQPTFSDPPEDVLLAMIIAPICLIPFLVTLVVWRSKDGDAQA
Protocol: Measurement of cAMP response. The rat fibroblast cell line Rat2 was obtained from the American Tissue Culture Collection (Manassas, Va.) and kept in RPMI-1640 medium supplemented with 10% fetal calf serum (Invitrogen). Accumulation of intracellular cAMP was measured as described (Pío et al., J. Biol. Chem. 276:12292-12300, 2001). Cells were seeded in 24-well plates at 2×10^4 cells/well and incubated at 37° C. in 5% CO2 until they reached 80% confluency. Before the assay, cells were incubated for 15 minutes in TIS medium (RPMI-1640 plus 10 μg/ml transferrin, 10 μg/ml insulin, and 50 nM sodium selenite) containing 1% bovine serum albumin, 1 mg/ml bacitracin, and 100 μM isobutylmethylxanthine. Peptides were applied in the same medium for 5 minutes at the indicated concentrations in a volume of 250 μl. The reaction was terminated by adding an equal volume of ice-cold ethanol. cAMP contents were measured using the Biotrac cAMP radioimmunoassay (Amersham).
To determine if AM peptide fragments elicit their hypotensive and hypertensive effects via the AM receptor, their cAMP response in fibroblasts was examined.

blood pressure = conditions: Kitamura et al. 2001; cited from earlier work
anesthetized rats = conditions: Watanabe et al. 1996; cited from earlier work
Human recombinant MMP-2 = target: T2, Human recombinant MMP-2 (Homo sapiens, UniProt P08253); assay: Digestion reactions with MMP-2 (gel, HPLC); type: biochemical; conditions: low salt collagenase buffer, absence of factor H
T2 construct: made in house
T2 sequence (P08253 110-660): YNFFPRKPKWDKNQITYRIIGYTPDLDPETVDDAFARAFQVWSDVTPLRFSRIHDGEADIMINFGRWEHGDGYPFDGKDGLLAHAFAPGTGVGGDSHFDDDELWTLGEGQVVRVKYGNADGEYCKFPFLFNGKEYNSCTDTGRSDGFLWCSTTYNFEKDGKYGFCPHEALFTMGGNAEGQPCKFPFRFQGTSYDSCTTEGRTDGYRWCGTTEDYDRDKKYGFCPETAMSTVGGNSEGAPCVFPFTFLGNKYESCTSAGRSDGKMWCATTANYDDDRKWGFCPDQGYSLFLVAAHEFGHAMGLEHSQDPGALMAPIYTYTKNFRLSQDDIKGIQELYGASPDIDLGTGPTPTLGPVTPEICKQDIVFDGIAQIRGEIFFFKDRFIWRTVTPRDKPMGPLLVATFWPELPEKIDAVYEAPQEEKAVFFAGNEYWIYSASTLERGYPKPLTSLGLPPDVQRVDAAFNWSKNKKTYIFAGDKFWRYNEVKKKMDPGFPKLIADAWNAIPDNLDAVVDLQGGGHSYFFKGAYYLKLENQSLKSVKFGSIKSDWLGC
Protocol: (§1) Digestion reactions. Synthetic AM (240 μg/reaction) was exposed to 11.5 μg MMP-2 or MMP-9 in low salt collagenase buffer (50 mM Tris, pH 7.5, 50 mM NaCl, 0.02% Brig) for different periods of time in the presence or absence of 6 mg factor H. These amounts correspond to an approximate molar ratio of 1:250:250 (enzyme:AM:factor H). The reaction was stopped with EDTA. Digestion reactions were run in 16% Tricine gels (Invitrogen, Carlsbad, Calif.) under reducing conditions and stained with Gel Code Blue Stain Reagent (Pierce, Rockford, Ill.).
High performance liquid chromatography (HPLC). Digestion reactions were also loaded into an analytical reverse phase R2H 5×100 mm HPLC column (Poros, Applied Biosystems, Foster City, Calif.) in a 10-60% acetonitrile gradient over 10 minutes and the protein peaks eluted from the column were detected with a wavelength of 230 nm.

Human recombinant MMP-9 = target: T3, Human recombinant MMP-9 (Homo sapiens, UniProt P14780); assay: Digestion reactions with MMP-9 (gel); type: biochemical; conditions: low salt collagenase buffer
T3 construct: made in house
T3 sequence (P14780 94-707): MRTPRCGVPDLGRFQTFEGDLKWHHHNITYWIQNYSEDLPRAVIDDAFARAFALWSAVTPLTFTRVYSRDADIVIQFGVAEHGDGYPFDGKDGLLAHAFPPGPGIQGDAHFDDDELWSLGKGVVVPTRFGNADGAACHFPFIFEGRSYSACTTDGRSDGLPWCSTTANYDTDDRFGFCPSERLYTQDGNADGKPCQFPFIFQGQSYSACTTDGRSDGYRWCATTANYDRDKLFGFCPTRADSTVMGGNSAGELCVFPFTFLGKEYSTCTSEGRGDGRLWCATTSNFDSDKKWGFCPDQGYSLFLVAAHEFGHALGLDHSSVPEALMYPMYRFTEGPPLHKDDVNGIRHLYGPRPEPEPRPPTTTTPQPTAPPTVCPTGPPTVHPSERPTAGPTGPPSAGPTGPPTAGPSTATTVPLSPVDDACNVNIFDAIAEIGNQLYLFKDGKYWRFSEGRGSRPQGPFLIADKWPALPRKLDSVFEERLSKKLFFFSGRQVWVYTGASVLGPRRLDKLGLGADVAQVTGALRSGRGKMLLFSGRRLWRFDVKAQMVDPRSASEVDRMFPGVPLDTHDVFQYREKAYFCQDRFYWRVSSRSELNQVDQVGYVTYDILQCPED
Protocol: as §1

[3] = anesthetized rats, injection into femoral vein

Compound: CNC(=O)[C@H](Cc1ccccc1)NC(=O)[C@H](CC(C)C)[C@H](CSc1cccs1)C(=O)NO [BB-94, Batimastat]
- drop in blood pressure (hypertensive SHR rats): about 80 mm of Hg
- time after injection at which blood pressure dropped (hypertensive SHR rats): 20 min
- time blood pressure remained at the reduced level (hypertensive SHR rats): at least 2.5 hours

Compound: AM(8-52): AM fragment generated by MMP-2 digestion; maintains intramolecular ring structure and α-amide; synthesized (FQGLRSFGCRFGTCTVQKLAHQIYQFTDKDKDNVAPRSKISPQGY-NH2; disulfide 9-14 (inferred); UniProt P35318 102-146, looked up, fragment)
- effect on blood pressure [1, 3]: induced hypotension
- intracellular elevation of cAMP [2]: equal to the one induced by the intact AM molecule

- effect on cAMP response elicited by intact AM (1-52) ([2]; different (increasing) concentrations of peptide added with AM): did not affect the response
Compound: AM(11-22): peptide consisting of amino acids 11-22 of adrenomedullin (LRSFGCRFGTCT; PEPTIDE (1)..(12) Active peptide AM(11-22), corresponding to positions 11-22 of adrenomedullin (SEQ ID NO 3) and positions 105-116 of preproadrenomedullin (SEQ ID NO 2).; listed as Homo sapiens)
- vasopressor effect over basal levels ([1]; anesthetized rats, injection into femoral vein, n=5): 71±24 mm Hg
- duration of activity ([1]; vasoconstrictor activity in rats): on the order of hours

Compound: AM(11-26): AM fragment purified from bovine adrenal medulla (Kitamura et al.) (LRSFGCRFGTCTVQKL; ends and bridges not checked; cysteine pairing not given here; UniProt P35318 105-120, looked up, fragment)
- duration of elevation in blood pressure (blood pressure): about 70 seconds
- vasopressor activity (blood pressure): induced vasopressor activity

Compound: AM(11-28): AM fragment generated by MMP-2 digestion; has the loop but not the carboxy end; synthesized (LRSFGCRFGTCTVQKLAH; disulfide 6-11 (inferred); UniProt P35318 105-122, looked up, fragment)
- effect on blood pressure [1, 3]: do not have any discernible effect

Compound: AM(11-52): AM fragment generated by MMP-2 digestion; maintains intramolecular ring structure and α-amide; synthesized (LRSFGCRFGTCTVQKLAHQIYQFTDKDKDNVAPRSKISPQGY-NH2; disulfide 6-11 (inferred); UniProt P35318 105-146, looked up, fragment)
- effect on blood pressure [1, 3]: induced hypotension
- intracellular elevation of cAMP [2]: equal to the one induced by the intact AM molecule

Compound: AM(23-52): AM fragment generated by MMP-2 digestion; retains only the terminal amide; synthesized (VQKLAHQIYQFTDKDKDNVAPRSKISPQGY-NH2; UniProt P35318 117-146, looked up, fragment)
- effect on blood pressure [1, 3]: do not have any discernible effect

Compound: AM(29-52): AM fragment generated by MMP-2 digestion; retains only the terminal amide; synthesized (QIYQFTDKDKDNVAPRSKISPQGY-NH2; UniProt P35318 123-146, looked up, fragment)
- effect on blood pressure [1, 3]: do not have any discernible effect

Compound: AM-(1-21)-NH2: synthetic N-terminal AM fragment (Watanabe et al.) (YRQSMNNFQGLRSFGCRFGTC-NH2; ends and bridges not checked; UniProt P35318 95-115, looked up, fragment)
- vasoactivity (vasodepressor or vasopressor) (anesthetized rats): vasopressor activity

Compound: AM-(1-25)-NH2: synthetic N-terminal AM fragment (Watanabe et al.) (YRQSMNNFQGLRSFGCRFGTCTVQK-NH2; ends and bridges not checked; UniProt P35318 95-119, looked up, fragment)
- vasoactivity (vasodepressor or vasopressor) (anesthetized rats): vasodepressor activity

Compound: AM-(1-25)-OH: synthetic N-terminal AM fragment (Watanabe et al.) (YRQSMNNFQGLRSFGCRFGTCTVQK-OH; ends and bridges not checked; UniProt P35318 95-119, looked up, fragment)
- vasoactivity (vasodepressor or vasopressor) (anesthetized rats): vasopressor activity

Compound: AM-(1-31)-NH2: synthetic N-terminal AM fragment (Watanabe et al.) (YRQSMNNFQGLRSFGCRFGTCTVQKLAHQIY-NH2; ends and bridges not checked; UniProt P35318 95-125, looked up, fragment)
- vasoactivity (vasodepressor or vasopressor) (anesthetized rats): vasopressor activity

Compound: acetyl-AM-(16-21)-NH2: synthetic N-terminal AM fragment (Watanabe et al.) (Ac-CRFGTC-NH2; ends and bridges not checked; UniProt P35318 110-115, looked up, fragment)
- vasoactivity (vasodepressor or vasopressor) (anesthetized rats): vasopressor activity

Compound: acetyl-AM-(16-36)-NH2: synthetic N-terminal AM fragment (Watanabe et al.) (Ac-CRFGTCTVQKLAHQIYQFTDK-NH2; ends and bridges not checked; UniProt P35318 110-130, looked up, fragment)
- vasoactivity (vasodepressor or vasopressor) (anesthetized rats): vasopressor activity

- intracellular elevation of cAMP [2]: significant elevation of cAMP
- degradation by MMP-2 (Human recombinant MMP-2): rapidly cleaves
- degradation by MMP-9 (Human recombinant MMP-9): resistance
Compound: adrenomedullin [AM]
- reduction of blood pressure (hypotension) ([1]; anesthetized rats, injection into femoral vein, n=5, untreated systolic 125±10 mm Hg): 55±5 mm Hg
